Where two headings read alike, the source gives them in different places.
Tests used:
CB1 receptor = target: T1, CB1 receptor (Rattus norvegicus, UniProt P20272); assay: Radioligand displacement in whole rat brain (CB1) membrane preparations; format: binding; details: Table 4, parallel synthesis analogs; for Ki: n = 1, concentration assumes 100% yield; for Max. Disp. %, 3H-CP55940 / Max. Disp. %, 3H-SR141716A / Max. Disp. %, 3H-WIN55212-2: n = 1
T1 construct: Whole rat brains or dissected regions from live CD rats; tissue Charles River or Pel-Freez Biologicals; host or cells: whole rat brain (CD rats), P2 membrane
T1 sequence (P20272 whole entry): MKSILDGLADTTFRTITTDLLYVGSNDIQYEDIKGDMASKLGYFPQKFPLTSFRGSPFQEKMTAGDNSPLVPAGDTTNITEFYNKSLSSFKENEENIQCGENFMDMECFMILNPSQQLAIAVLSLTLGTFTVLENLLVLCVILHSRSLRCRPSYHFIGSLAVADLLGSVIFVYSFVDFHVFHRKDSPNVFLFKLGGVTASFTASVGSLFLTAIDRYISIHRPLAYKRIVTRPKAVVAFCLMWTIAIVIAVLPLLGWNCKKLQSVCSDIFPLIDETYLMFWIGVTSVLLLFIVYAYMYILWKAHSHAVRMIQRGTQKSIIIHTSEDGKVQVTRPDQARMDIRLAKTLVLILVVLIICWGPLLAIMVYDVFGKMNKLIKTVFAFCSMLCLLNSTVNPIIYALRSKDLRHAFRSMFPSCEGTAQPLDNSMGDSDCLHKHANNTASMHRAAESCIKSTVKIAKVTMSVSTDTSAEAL
Description: CB1 receptor affinity in rat brain.
Methods—membrane preparation from brain. The methods for tissue preparation are essentially those described by Devane et al. (1988) as modified by Compton et al. (1993) and later by Thomas et al. (1998). Whole rat brains or dissected regions from live CD rats from Charles River or Pel-Freez Biologicals (Rogers, Ark.), or human brain sections obtained from the National Disease Research Institute, were allowed to thaw to room temperature on ice. Both whole brain and dissected brain regions were used because different brain regions may express different cannabinoid receptor subtypes (Skaper et al., 1996; Thomas et al., 1998). The tissue was homogenized with a Kontes Potter-Elvehjem glass-Teflon grinding system (Fisher Scientific, Springfield, N.J.) in buffer 1 (320 mM sucrose, 2 mM EDTA, 5 mM MgCl2. The homogenate was centrifuged at 1600 g for 10 min. The supernatant was saved and combined with the two subsequent supernatants obtained from washing and 1600 g centrifugation of the P1 pellet. The combined supernatant fractions were then centrifuged at 39,000 g for 15 min. The P2 pellet was resuspended in 50 mL of buffer 2 (50 mM Tris.HCl, 2 mM EDTA, 5 mM MgCl2, pH 7.0), incubated at 37° C. for 10 min, then centrifuged at 23,000 g for 10 min. The P2 membrane was resuspended in 50 mL of buffer 2, incubated at 30° C. for 40 min, then centrifuged at 11,000 g for 15 min. The final wash-treated P2 pellet was resuspended in assay buffer 3 (50 mM Tris.HCl, 1 mM EDTA, 3 MM MgCl2, pH 7.4). Protein concentrations were determined by the method of Bradford (1976) using Coomassie brilliant blue dye (Bio-Rad, Richmond, Calif.) and BSA standards (bovine serum albumin, fatty acid free, Sigma Chemical Co., St. Louis, Mo.) prepared in assay buffer 3. The membrane preparation was divided into aliquots and stored at −80° C. For use in the binding assay, an aliquot of frozen membranes was thawed on ice and diluted to a concentration of ca. 0.2 mg/mL in assay buffer.
Methods—binding assay in brain membrane preparation. The methods for ligand binding are essentially those described by Devane et al. (1988) with the exception that we used a filtration assay. […] All cannabinoid analogs were prepared by suspension in buffer A from a 1-5 mg/mL ethanolic stock. Following incubation at 30° C. for 1 h, binding was terminated by vacuum filtration through pretreated filters in a 96-well sampling manifold (Millipore, Bedford, Mass.). Reaction vessels were washed at least 3 times with 1 mL of ice cold buffer B (50 mM Tris.HCl, 1 mg/mL BSA). The filter plates were air-dried and sealed on the bottom. Liquid scintillant was added to the wells and the top sealed. After incubating the plates in cocktail for at least 2 h, the radioactivity present was determined by liquid scintillation spectrometry. Assays were done in duplicate, and results represent the combined data of three to six independent experiments. All assays were performed in polypropylene test tubes. The GF/C glassfiber filter plates (Packard, Meriden, Conn.) were pretreated in buffer B for at least 1 h.
(§1) Data analysis. Saturation and displacement data were analyzed by unweighted nonlinear regression of receptor binding data. For displacement studies, curve-fitting and IC50 calculation were done with GraphPad Prism (GraphPad Software, Inc., San Diego, Calif.), which fits the data to one and two-site models and compares the two fits statistically. A similar approach was used for the analysis of isotherm data for calculation of Kd's. A two-site fit was accepted only if it was statistically significant (p<0.05) and the following results were not observed:
(§2) IC50 values were then converted to Ki values by reported methods (Cheng and Prusoff, 1973). The statistical evaluation of curve-fitting data allowed for a non-arbitrary conclusion based on the displacement data.

human CB1 receptor = target: T2, human CB1 receptor (Homo sapiens, UniProt P21554); assay: Radioligand displacement in human CB1 receptor-transfected cells (HEK-293); format: binding
T2 construct: expressed in transfected cells; host or cells: HEK-293
T2 sequence (P21554 whole entry): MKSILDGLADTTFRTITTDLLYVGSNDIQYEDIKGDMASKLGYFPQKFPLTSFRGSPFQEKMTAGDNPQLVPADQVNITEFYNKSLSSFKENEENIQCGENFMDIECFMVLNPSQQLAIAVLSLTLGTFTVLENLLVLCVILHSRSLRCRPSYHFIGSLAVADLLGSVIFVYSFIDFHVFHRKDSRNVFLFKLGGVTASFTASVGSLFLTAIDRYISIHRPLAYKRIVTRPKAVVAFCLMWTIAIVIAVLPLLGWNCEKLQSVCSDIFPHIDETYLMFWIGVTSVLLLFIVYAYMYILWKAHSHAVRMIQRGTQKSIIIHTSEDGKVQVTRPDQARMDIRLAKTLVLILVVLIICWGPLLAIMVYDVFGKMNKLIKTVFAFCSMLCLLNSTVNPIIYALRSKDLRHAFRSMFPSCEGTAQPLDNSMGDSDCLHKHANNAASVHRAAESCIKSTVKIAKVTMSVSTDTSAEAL
Description: Human CB1 receptor affinity. The alkyl amide analogs of the present invention were examined using transfected cell lines expressing the human CB1 receptor (Table 3).
Methods—binding assay in transfected cell lines. The methods used for performing binding assays in transfected cells expressing human CB1 or CB2 receptors are those used above. The CB1 receptor involved a HEK-293 expression system whereas the CB2 receptor was expressed in CHO-K1 cells. […] The incubations and separations were then performed as described above for rat brain membrane preparations.
as §1, §2

[1] = displacement of 3H-CP55940, whole rat brain, 3H-CP55940
[2] = displacement of 3H-SR141716A, whole rat brain, 3H-SR141716A
[3] = displacement of 3H-WIN55212-2, whole rat brain, 3H-WIN55212-2
[4] = displacement of 3H-CP55940, human CB1 transfected cells, 3H-CP55940, Table 5, parallel synthesis analogs, concentration assumes 100% yield
[5] = displacement of 3H-SR141716A, human CB1 transfected cells, 3H-SR141716A, Table 5, parallel synthesis analogs, concentration assumes 100% yield
[6] = displacement of 3H-WIN55212-2, human CB1 transfected cells, 3H-WIN55212-2, Table 5, parallel synthesis analogs, concentration assumes 100% yield
[7] = human CB1 transfected cells, 3H-CP55940, Table 5, parallel synthesis analogs
[8] = human CB1 transfected cells, 3H-SR141716A, Table 5, parallel synthesis analogs
[9] = human CB1 transfected cells, 3H-WIN55212-2, Table 5, parallel synthesis analogs

Row | SMILES | Ki (CB1 receptor; [1]) [nM] | Ki (CB1 receptor; [2]) [nM] | Ki (CB1 receptor; [3]) [nM] | Max. Disp. %, 3H-CP55940 (CB1 receptor; whole rat brain, 3H-CP55940) [%] | Max. Disp. %, 3H-SR141716A (CB1 receptor; whole rat brain, 3H-SR141716A) [%] | Max. Disp. %, 3H-WIN55212-2 (CB1 receptor; whole rat brain, 3H-WIN55212-2) [%] | Ki (human CB1 receptor; [4]) [nM] | Ki (human CB1 receptor; [5]) [nM] | Ki (human CB1 receptor; [6]) [nM] | Max. Disp. %, 3H-CP55940 (human CB1 receptor; [7]) [%] | Max. Disp. %, 3H-SR141716A (human CB1 receptor; [8]) [%] | Max. Disp. %, 3H-WIN55212-2 (human CB1 receptor; [9]) [%] | Max. Disp. %, 3H-CP55940 (human CB1 receptor) [%] | Max. Disp. %, 3H-SR141716A (human CB1 receptor) [%] | Max. Disp. %, 3H-WIN55212-2 (human CB1 receptor) [%] | Ki (human CB1 receptor; displacement of 3H-CP55940) [nM] | Ki (human CB1 receptor; displacement of 3H-SR141716A) [nM] | Ki (human CB1 receptor; displacement of 3H-WIN55212-2) [nM]
1 | COc1ccc(NC(=O)c2nn(-c3ccc(Cl)cc3Cl)c(-c3ccc(Cl)cc3)c2C)cc1 [AN-2] | 91 | 11.8 | 30.4 | 96.4 | 95.4 | 85.8 | 220 | 101 | 128 | 62.6 | 87.3 | 68.1 |  |  |  |  |  | 
2 | CC(C)=CCC/C(C)=C/CNC(=O)c1nn(-c2ccc(Cl)cc2Cl)c(-c2ccc(Cl)cc2)c1C [AKS-10262-2] | 48.1 | 20.1 | 40.5 | 84.2 | 95.7 | 89.0 | 26.8 | 6.8 | 211 | 84.2 | 95.7 | 78.3 |  |  |  |  |  | 
3 | Cc1c(C(=O)NC(C)CCCC(C)C)nn(-c2ccc(Cl)cc2Cl)c1-c1ccc(Cl)cc1 (stereo not shown) [AKS-10262-7] | 8.97 | 3.57 | 5.76 | 89.6 | 95.1 | 87.7 |  |  |  |  |  |  | 82.5 | 93.7 | 67.9 | 7.39 | 2.1 | 64.2
4 | CCCCCCCCCCCCCNC(=O)c1nn(-c2ccc(Cl)cc2Cl)c(-c2ccc(Cl)cc2)c1C [BT-6] | 492 | 172 | 495 | 79.3 | 97.6 | 80.5 | 201 | 4.2 | 173 | 75.9 | 91.3 | 94.9 |  |  |  |  |  | 
5 | Cc1c(C(=O)NCCC(c2ccccc2)c2ccccc2)nn(-c2ccc(Cl)cc2Cl)c1-c1ccc(Cl)cc1 [AKS-10262-9] | 19.9 | 5.52 | 10.3 | 90.1 | 96.0 | 81.1 | 25.2 | 3.28 | 16.9 | 88.1 | 96.7 | 77.3 |  |  |  |  |  | 
6 | CCCCCC(CC)NC(=O)c1nn(-c2ccc(Cl)cc2Cl)c(-c2ccc(Cl)cc2)c1C (stereo not shown) [AKS-10262-5] | 19.6 | 8.6 | 25.8 | 89.5 | 95.7 | 85.1 | 9.6 | 3.8 | 78.6 | 91.4 | 95.9 | 100 |  |  |  |  |  | 
7 | CCCCCCCCCCCCNC(=O)c1nn(-c2ccc(Cl)cc2Cl)c(-c2ccc(Cl)cc2)c1C [BT-2] | 109 | 53.7 | 238 | 82.6 | 95.6 | 56.5 | 176 | 43.5 | 13.8 | 79.5 | 89.8 | 31.4 |  |  |  |  |  | 
8 | CCCCCC(C)NC(=O)c1nn(-c2ccc(Cl)cc2Cl)c(-c2ccc(Cl)cc2)c1C (stereo not shown) [AKS-10262-1] | 10.7 | 2.6 | 1.84 | 98.2 | 96.5 | 89.0 |  |  |  |  |  |  | 80.7 | 95.6 | 100 | 11.9 | 2.02 | 54.6
9 | Cc1c(C(=O)NC(C)Cc2ccc(Cl)cc2)nn(-c2ccc(Cl)cc2Cl)c1-c1ccc(Cl)cc1 (stereo not shown) [AKS-10262-10] | 18.4 | 2.7 | 10.1 |  | 95.9 | 86.1 | 22.9 | 2.38 | 70.2 | 94.8 | 100 | 65.5 |  |  |  |  |  | 
10 | CCCCCCC(C)NC(=O)c1nn(-c2ccc(Cl)cc2Cl)c(-c2ccc(Cl)cc2)c1C (stereo not shown) [AKS-10262-4] | 26.2 | 10.8 | 5.8 | 83.9 | 91.3 | 53.7 |  |  |  |  |  |  | 79.5 | 91.5 | 0.0 | 26.3 | 2.8 | 
11 | Cc1c(C(=O)N2CCc3ccccc3C2)nn(-c2ccc(Cl)cc2Cl)c1-c1ccc(Cl)cc1 [AM-50] | 194 | 44.6 | 152 | 88.3 | 90.5 | 89.0 | 57.7 | 21 | 166 | 66.3 | 90.4 | 74.6 |  |  |  |  |  | 
12 | CCCCCCCCCCNC(=O)c1nn(-c2ccc(Cl)cc2Cl)c(-c2ccc(Cl)cc2)c1C [BT-1] | 92.8 | 45 | 1390 | 83.6 | 92.5 | 67.4 |  |  |  |  |  |  | 94.5 | 95.4 | 12.4 | 184 | 24.6 | 63.8
13 | Cc1c(C(=O)NC(C)CCC(C)C)nn(-c2ccc(Cl)cc2Cl)c1-c1ccc(Cl)cc1 (stereo not shown) [AKS-10262-8] | 3.37 | 2.81 | 28.6 | 76.6 | 96.2 | 94.1 | 13.2 | 5.48 | 33.2 | 76.8 | 93.6 | 91.5 |  |  |  |  |  | 
